Here are results for one compound from patent US8110580B2, “Thiophene pyrazolopyrimidine compounds” (Eli Lilly and Company, priority 2006, dated 2012).

Structures are written as SMILES. Residue numbers refer to the chain shown, from its start.

The target in one test is T1, human CRF1 (Homo sapiens, UniProt P34998).
T1 construct: expressed in transfected cells
T1 sequence (P34998 24-415): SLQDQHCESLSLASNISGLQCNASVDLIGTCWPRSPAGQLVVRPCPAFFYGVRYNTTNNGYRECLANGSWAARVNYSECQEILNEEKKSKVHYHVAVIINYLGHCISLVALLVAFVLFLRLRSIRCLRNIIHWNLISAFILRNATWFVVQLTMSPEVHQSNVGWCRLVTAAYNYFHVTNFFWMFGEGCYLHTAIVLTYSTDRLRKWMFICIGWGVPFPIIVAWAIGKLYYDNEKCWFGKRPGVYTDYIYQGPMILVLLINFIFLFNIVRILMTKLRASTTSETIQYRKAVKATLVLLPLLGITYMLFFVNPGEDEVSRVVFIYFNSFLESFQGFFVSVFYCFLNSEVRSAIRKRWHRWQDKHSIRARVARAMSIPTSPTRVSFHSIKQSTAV
Description: CRF1 filter binding assay. The conditions noted are these: HEK-hCRF1 membranes; 125I-Sauvagine (4 nM) in roller/adherent cells; read-out: Ki (inhibition constant), inhibition of binding of 125I-Sauvagine. As to the method: The limitations of plasmid-based human CRF1 expression, in terms of generating a recombinant cell line with sufficient receptor density to develop a binding assay, are overcome by using a Phoenix retroviral expression system licensed from Stanford. The stable HEK-hCRF1 cell line is used to prepare membranes and binding reactions (200 μl) are set up as follows: 50 μl of ^125I-sauvagine (0.2 nM final), 50 μl compound and 100 μl CRF1 membrane (25 μg/reaction). The reactions are incubated at room temperature for 2 hours and then terminated by filtration through pre-treated FB Millipore glass fiber filter plates (96 well). The plates are wash twice with ice-cold assay buffer (50 mM tris, 12.5 mM NaCl, 1 mM EDTA, 10 mM MgCl2, 0.05% BSA, pH 7.2), air dried over night and counted with 100 μl Microscint 40 in a MicroBeta counter. Non-specific binding (NSB) is determined in the presence of 0.5 μM non-labeled sauvagine. Triplicate determinations are typically run and the median data points plotted by Graph Pad Prism.
Using this assay, the exemplified compounds of the present invention (except for Examples 2, 3, 6, 7, and 8, which were used as intermediates for other Examples and were not tested.) inhibit the binding of ^125I-Sauvagine (4 nM) in roller/adherent cells with a Ki (inhibition constant)≦500 nM.

Test [1] addresses T2, binding of 125I-sauvagine to the cerebellum (Rattus norvegicus, UniProt P35353).
T2 construct: from tissue; host or cells: rat cerebellum
T2 sequence (P35353 24-415): T1 sequence (P34998 24-415) with H6R, S9N, A13T, I16V, M153V, G163A, I209V, Y229H, H356R
The experiment in a line: In vivo potency assessment using ex vivo binding. To be noted: oral route. As to the method:
To assess in vivo potency, a compound of the present invention is evaluated using ex vivo binding. Using the procedures as provided in D. R. Gehlert et al., EJP 509: 145-153 (2005), a compound is administered to a rat via the oral route.

For the next test, the target named is T3, human CRF2 (Homo sapiens, UniProt Q13324).
T3 construct: expressed in transfected cells
T3 sequence (Q13324 1-411): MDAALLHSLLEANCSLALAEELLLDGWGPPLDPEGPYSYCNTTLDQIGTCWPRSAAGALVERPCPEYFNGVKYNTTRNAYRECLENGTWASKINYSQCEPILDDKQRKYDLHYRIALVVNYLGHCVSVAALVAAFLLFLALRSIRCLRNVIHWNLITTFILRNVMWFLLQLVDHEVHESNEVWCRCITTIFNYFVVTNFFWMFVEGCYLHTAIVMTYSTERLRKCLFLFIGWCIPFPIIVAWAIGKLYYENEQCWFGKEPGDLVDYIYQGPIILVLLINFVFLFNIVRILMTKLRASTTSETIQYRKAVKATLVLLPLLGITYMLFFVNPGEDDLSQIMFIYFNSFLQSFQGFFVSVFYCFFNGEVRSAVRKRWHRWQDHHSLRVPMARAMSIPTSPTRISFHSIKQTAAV
Description: CRF2 filter binding assay. The conditions noted are these: HEK-hCRF2 membranes; compound concentration 50 μM. As to the method:
The limitations of plasmid-based human CRF2 expression, in terms of generating a recombinant cell line with sufficient receptor density to develop a binding assay, are overcome by using a Phoenix retroviral expression system licensed from Stanford. The stable HEK-hCRF2 cell line is used to prepare membranes and binding reactions (200 μl) are set up as follows: 50 ul of ^125I-sauvagine (0.2 nM final concentration), 50 μl compound and 100 μl CRF2 membrane (25 μg/reaction). The reactions are incubated at room temperature for 2 hours and then terminated by filtration through pre-treated FB Millipore glass fiber filter plates (96 well). The plates are washed twice with ice-cold assay buffer (50 mM tris, 12.5 mM NaCl, 1 mM EDTA, 10 mM MgCl2, 0.05% BSA, pH 7.2), air dried over night and counted with 100 μl Microscint 40 in a MicroBeta counter. Non-specific binding (NSB) is determined in the presence of 0.5 μM non-labeled sauvagine. Alternatively, compounds are evaluated using a Scintillation Proximity assay. […] Bound radioactivity is assessed using a Wallac Trilux scintillation counter. Binding is assessed typically using triplicate determinations and the median data points plotted by Graph Pad Prism. […]

As to `CCCC(CCC)c1cc(C)nc2c(-c3sc(-c4ncnn4C)cc3Cl)c(C)nn12` [Example 20, 3-[3-Chloro-5-(2-methyl-2H-[1,2,4]triazole-3-yl)-thiophene-2-yl]-7-(1-propyl-butyl)-2,5-dimethyl-pyrazolo[1,5-a]pyrimidine], at human CRF1, the Ki was 4.4 nM. Moreover, the inhibition at 10 mg/kg in test [1] came to 74%. In addition, the inhibition at 50 µM on human CRF2 was found to be 39%.
